Experimental findings from patent US6071947A, “Indolyl-pyrrolydenemethylpyrrole derivatives and process for their preparation” (Pharmacia & Upjohn S.p.A., priority 1997, dated 2000) are described below.

Data set [1] relates to Delayed-Type Hypersensitivity. The experiment in a line: Test n° 4: in vivo DTH (Delayed-Type Hypersensitivity) assay, SRBC-induced footpad thickness increase. Further details: species or system female C57 B1/6 mice. The following applies: Mus musculus, read-out: DTH ED30 os.
Experimental: Comparative in Vivo Activity Evaluation by DTH Assay
The immunosuppressive activity of the compounds of the invention was evaluated in vivo by DTH (Delayed-Type Hypersensitivity) assay. According to the test, sheep red blood cells (SRBC) (1×10^5 cells) suspended in 500 mcL saline, were injected i.v. into the tail vein of female C57 B1/6 mice (8-9 week old). Five days later 1×10^8 SRBC suspended in 50 mcL saline were injected into the left hind footpad. The increase in footpad thickness was measured with a dial micrometer 24 h after challenge. The test compounds were given daily for six days at different doses starting on the day of priming.
The nature of data set [2]: Test n° 5: in vivo bioavailability evaluation after oral administration. The following applies: rat, 10 mg/kg.
Experimental: In Vivo Bioavailability Evaluation
Aim of the study is to determine the pharmacokinetics and the oral bioavailability of the instant compounds in rats.
Species/strain/sex: rat/Lewis/male
No. formulations: 1 oral; 1 intravenous
No. animals/formulation: 3+2 controls (+an ulterior rat treated with the iv formulation); total 9
Dosages: iv: 1 mg salt/kg; oral: 10 mg salt/kg
Vehicles: iv: a solution at the conc. of 5 mg/ml in PEG 400/Tween 80 (6:1 v:v) was prepared, then diluted with dextrose at the final concentration of 0.5 mg/ml; oral: a solution at the concentration of 5 mg/ml in Cremophor ELP/EtOH abs (6.5:3.5 v:v) was prepared, then diluted with saline at the final concentration of 1 mg/ml
Experimental: Three cannulated rats/formulation were treated. One rat/formulation was only treated with the vehicle, as basal sample. The intravenous administration was given into the caudal vein as bolus; the oral administration by gastric gavage as solution. […] Plasma was immediately obtained by centrifugation (10000 rpm for 3 min) and stored in labelled tubes at -30° C. till analysis.
Analytical assay: the extraction of the compounds was performed by protein precipitation by adding 100 mcl of acetonitrile to 25 mcl of plasma. The concentrations of the compounds (as free bases) in plasma were determined by LC-MS method. Column: APEX CN RP 5 mc, 10×4 mm (Jones chromatography); mobil phase: 70% acetonitrile/30% 1 mM ammonium formate +0.01% triethylamine adjusted to pH 2.0 with formic acid; flow rate: 1 ml/min; injection volume: 10 mcL; oven temperature: 45° C.; MS detection by APCI using MRM positive ion; MRM transition: 330 m/z>239 m/z, retention time: 1.4 min; LLOQ: 5.03 ng/ml; ULOQ: 10060 ng/ml.
For data set [3], the system named is Th2 murine cells D10-G4.1 (ATCC TIB 224). The experiment in a line: Inhibition of IL-2 proliferation induced activity (D10 cells, 3H-TdR uptake). Type of data set: cell-based. As to the method: Inhibition of IL-2 Proliferation Induced Activity
The Th2 murine cells D10-G4.1 (ATCC TIB 224) are IL-2 dependent for their growth. They are cultured in complete RPMI 1640 medium enriched with rhIL-2 (6 ng/ml) and ConA (6 ng/ml).
For testing the inhibitory effects of the compounds of the invention on IL-2 activity, D 10 cells are washed twice with complete medium, resuspended at 10^5 cells/ml in the same medium and triplicately distributed (10^4 cells/well) in flat bottomed 96 well plates. […] and […] at different concentrations are simultaneously added to the cells. The cultures are then incubated at 37° C. in a humidified 5% CO2 incubator for 48 h, the last 18 h in the presence of 0.2 μCi of ^3 H-TdR.
Uptake of 3H-TdR in the cells (cpm) is taken as a measure of cell proliferation.

Where [4] appears, read: oral (os), daily for six days, dose able to reduce by 30% the footpad thickness increase compared to controls, 24 h after challenge, mice.

Counter-ions that a name gives are not always drawn. Like-named read-outs stand apart in the source and are kept apart here.

Turning to `CCCCCCCCCCCC1=NC(=Cc2[nH]c(-c3cc4ccccc4[nH]3)cc2OC)C=C1.Cl` [PNU 166823, 2-(1H-indol-2-yl)-4-methoxy-5-[(5-undecyl-2H-pyrrol-2-ylidene)methyl]-1H-pyrrole, hydrochloride], the ED30 in data set [1] (24 h) is 8.8 mg/kg. Besides, the bioavailability (commonly the share of a dose that reaches the circulation, judged against a reference dose that is usually intravenous) in data set [2] (in vivo) is 5%.
`CCCCCC1=NC(=Cc2[nH]c(-c3cc4ccccc4[nH]3)cc2OC)C=C1.Cl` [PNU 190192, 2-(1H-indol-2-yl)-4-methoxy-5-[(5-pentyl-2H-pyrrol-2-ylidene)methyl]-1H-pyrrole, hydrochloride]: the ED30 in data set [1] (setting [4]) turned out to be 7.1 mg/kg. Further, the bioavailability in data set [2] (plasma) stood at 38%. Moreover, the 3HTdR uptake in data set [3] (10 ng/ml, mean cpm from triplicate wells (SE), vehicle 61231 (1193)) is 57325 (1280) cpm; in data set [3] (30 ng/ml, mean cpm from triplicate wells (SE), vehicle 61231 (1193)), 29681 (1528) cpm; in data set [3] (0.1 ug/mL) it was 1388 (62) cpm. Besides, in data set [3] (Mus musculus, 10 ng/ml, 48 h, read-out: % inhibition vs vehicle), the inhibition (usually the change of the read-out against control, counted positive when it falls) at 0.01 µg/mL came out at 6%. Moreover, the inhibition at 0.03 µg/mL in data set [3] (Mus musculus, 30 ng/ml, 48 h, read-out: % inhibition vs vehicle) amounted to 52%. In addition, in data set [3] (Mus musculus, 100 ng/ml, 48 h, read-out: % inhibition vs vehicle), the inhibition at 0.1 µg/mL was 98%.
`COc1cc(-c2cc3ccccc3[nH]2)[nH]c1C=C1C=CC(C)=N1.Cl` [PNU 190364, 2-(1H-indol-2-yl)-4-methoxy-5-[(5-methyl-2H-pyrrol-2-ylidene)methyl]-1H-pyrrole, hydrochloride]: in data set [1] (setting [4]), the ED30 came to 6.6 mg/kg. The compound further had a bioavailability in data set [2] (plasma) of 82%.
As to `CC1=NC(=Cc2[nH]c(-c3cc4ccccc4[nH]3)cc2OCc2ccccc2)C=C1` [PNU 190537, 2-(1H-indol-2-yl)-4-benzyloxy-5-[(5-methyl-2H-pyrrol-2-ylidene)methyl]-1H-pyrrole, hydrochloride], the ED30 in data set [1] (setting [4]) was determined as 11.9 mg/kg. Further, the bioavailability in data set [2] (plasma) is 20%.
